Data from patent US20150342937A1, “BOWEL CLEANSING COMPOSITION” (priority 2013, published 2015).

How the values were obtained:
intestinal bacteria [1] = experiment: Bacterial culture test, 5% diluted solution of stool from one subject; assay type: cell-based; details: 10 ml 5% stool suspension + 15 ml test solution
Protocol: With respect to Example 2 in which xylitol was used as the first cleansing ingredient, in order to test the antibacterial effect of the solution against intestinal bacteria, a 5% diluted solution of stool was prepared from a stool sample obtained from one subject. […] Then, each of these mixed solutions was split in half and submitted to two different testing institutions, the Seoul Medical Science Institute (SCL), which is a CAP accredited and KSLM/Laboratory Medicine Foundation accredited institution, and the Green Cross Laboratories (GC Labs), which is a KSLM accredited institution, for bacterial culture tests.

[2] = 15 g intravenously over 30 minutes twice weekly for four weeks; phase I study 2013; cited from earlier work
intestinal bacteria [3] = experiment: Bacterial culture test of mixed stool/test solutions after gas measurement; assay type: cell-based; details: average; mixed solutions cultured for 48 hours at SCL
Protocol: Following the measurement of gas concentration as described above, the mixed solutions in the containers were submitted to a laboratory at the Seoul Medical Science Institute (SCL), a CAP accredited and Korean Society for Laboratory Medicine (KSLM)/Laboratory Medicine Foundation accredited institution, where they were cultured for 48 hours and measured for the resulting colony counts.

[4] = scale proposed by Nunes et al. 2008; cited from earlier work

OC[C@@H](O)[C@H](O)[C@@H](O)CO [Reference Example 6, xylitol]
Colony count (GC Labs) (intestinal bacteria [1]; Green Cross Laboratories): 10.2 × 10^6 CFU/mL
Colony count (SCL) (intestinal bacteria [1]; Seoul Medical Science Institute): 60 × 10^6 CFU/mL

O=C1O[C@H]([C@@H](O)CO)C(O)=C1O [ascorbic acid]
blood ascorbic acid level [2]: at least 350 mg/dL

OC[C@@H](O)[C@@H](O)[C@H](O)[C@@H](O)CO [compound 4, sorbitol]
Colony count (intestinal bacteria [3]): 4.5 × 10^8 CFU/mL

OC[C@@H](O)[C@@H](O)[C@H](O)[C@H](O)CO [compound 5, mannitol]
Colony count (intestinal bacteria [3]): 4.0 × 10^8 CFU/mL

OC[C@@H](O)[C@@H](O)[C@H](O)[C@H](O)CO [mannitol]
rate of adequate bowel cleansing [4]: 75%
